Among the test systems are HCC 2998; MDA-MB-231; SK-MEL-2; SNB-75; KM12; SW-620; NCI-H226; OVCAR-4; SR; MCF7; MDA-N; SK-MEL-28; DU-145; SF-295; HL-60; NCI-H23; ACHN; SK-MEL-5; UACC-62.
Common to all, as to experiment: growth of human tumour cells (NCI), 48 h

Each structure is given as a SMILES string.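 1) Cells in 96-well plates. 2) Compound, 48 h, 5 concentrations. 3) Linear interpolation between surrounding doses. 4) Unreached endpoint = highest concentration. GI50 = concentration required for 50% inhibition of growth.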 Activity calls are given as the source filed them. Rule as the data show it: active = GI50 up to about 1.1 µM and inactive = higher.

With `Cc1nc(N)c(N2CCN(CN)CC2)c(O)n1`, the GI50 in the experiment on HCC 2998, in the experiment with MDA-MB-231, in the experiment with SK-MEL-2, in the experiment on SNB-75, in the experiment with KM12 and with SW-620 was > 100 µM (inactive) throughout. The GI50 in the experiment on NCI-H226, in the experiment with OVCAR-4, with SR, with MCF7, in the experiment on MDA-N and in the experiment on SK-MEL-28 was > 100 µM (inactive) throughout. Moreover, the GI50 in the experiment with DU-145, in the experiment with SF-295, with HL-60, in the experiment on NCI-H23 and in the experiment on ACHN was > 100 µM (inactive) each time.
In the case of `O=C(C[C@H](NC(=O)OCc1ccccc1)C(=O)NC1Cc2ccccc2OC1=O)OCc1ccccc1` (stereo partly drawn), the GI50 in the experiment on HCC 2998 is 15.9 µM (inactive); in the experiment on SK-MEL-5, > 100 µM (inactive); in the experiment with MDA-MB-231, 26.7 µM (inactive); in the experiment with UACC-62 it was > 10 µM (inactive); in the experiment on SK-MEL-2, > 100 µM (inactive); with SNB-75 it was > 100 µM (inactive). Besides, the GI50 in the experiment on KM12 was > 100 µM (inactive); in the experiment with NCI-H226, > 100 µM (inactive); in the experiment on SR it was > 100 µM (inactive); in the experiment on MCF7, 19.4 µM (inactive); in the experiment with MDA-N, > 100 µM (inactive); in the experiment on SK-MEL-28, > 100 µM (inactive). The results for the GI50 with DU-145, with HL-60 and with NCI-H23 were 59.6 µM (inactive), > 10 µM (inactive) and > 100 µM (inactive), respectively.
`Cc1ccc([N+](=O)[O-])cc1S(=O)(=O)Nc1ccc(C2=NOC(c3cccs3)C2)cc1` (stereo not drawn): the GI50 in the experiment on HCC 2998 is 9.25 µM (inactive); with SK-MEL-5, 7.66 µM (inactive); with MDA-MB-231, 18.7 µM (inactive); with UACC-62, 3.78 µM (inactive); in the experiment on SK-MEL-2, 4.81 µM (inactive); with SNB-75, 16.1 µM (inactive). The GI50 in the experiment with KM12 was 7.18 µM (inactive); in the experiment with SW-620 it was 7.5 µM (inactive); in the experiment on NCI-H226, 25.1 µM (inactive); with OVCAR-4 it was 9.42 µM (inactive); with SR, 2.05 µM (inactive); in the experiment with MCF7, 5.73 µM (inactive). The GI50 in the experiment on MDA-N is 2.74 µM (inactive); in the experiment with SK-MEL-28, 20.1 µM (inactive); in the experiment on DU-145, 17.6 µM (inactive); in the experiment with SF-295, 3.9 µM (inactive); with HL-60 it was 3.55 µM (inactive); in the experiment with NCI-H23, 17.6 µM (inactive). Moreover, the GI50 with ACHN was 14.8 µM (inactive).
For the molecule `CCOC(=O)NC(C(F)(F)F)(C(F)(F)F)P(=O)(OCC(C)C)OCC(C)C`, the GI50 with HCC 2998 is 34.6 µM (inactive); in the experiment with SK-MEL-5, 12.1 µM (inactive); in the experiment on MDA-MB-231 it was 15.1 µM (inactive); in the experiment on UACC-62, 11.7 µM (inactive); with SK-MEL-2, 14.9 µM (inactive); in the experiment with SNB-75, 23.6 µM (inactive). Also, the GI50 is 14 µM (inactive) in the experiment on KM12; 3.82 µM (inactive) in the experiment on SW-620; 13.9 µM (inactive) with NCI-H226; 9.77 µM (inactive) in the experiment on SR; 4.7 µM (inactive) in the experiment with MCF7; 6.04 µM (inactive) in the experiment with MDA-N. The GI50 is 18 µM (inactive) in the experiment with SK-MEL-28; 35 µM (inactive) in the experiment with DU-145; 24.8 µM (inactive) with SF-295; 2.97 µM (inactive) in the experiment on HL-60; 8.34 µM (inactive) in the experiment on ACHN.
Turning to `CCOc1cc2c(cc1O)/C(=N\OC)C[C@@H]1[C@@H]2CC[C@]2(C)[C@@H](O)CC[C@@H]12`, the GI50 in the experiment with HCC 2998 was 1.25 µM (inactive); in the experiment on SK-MEL-5 it was < 0.0253 µM (active); in the experiment with MDA-MB-231 it was 0.685 µM (active); in the experiment with UACC-62 it was < 0.0306 µM (active); with SK-MEL-2 it was < 0.0358 µM (active); with SNB-75 it was 0.0219 µM (active). Besides, the GI50 was 0.423 µM (active) in the experiment with KM12; 0.212 µM (active) in the experiment with SW-620; 0.106 µM (active) in the experiment on NCI-H226; 10.7 µM (inactive) with OVCAR-4; 0.0127 µM (active) in the experiment on SR; 0.0238 µM (active) in the experiment on MCF7. In addition, the GI50 is < 0.0163 µM (active) in the experiment on MDA-N; 1.61 µM (inactive) in the experiment with SK-MEL-28; 0.326 µM (active) in the experiment with DU-145; 0.00548 µM (active) in the experiment with HL-60; 0.324 µM (active) in the experiment with NCI-H23; 1.09 µM (active) with ACHN.
On to `C/C(=C\CNc1ncnc2c1ncn2CCC(=O)OC(C)(C)C)CO`, for which the GI50 with HCC 2998, in the experiment on SK-MEL-5, in the experiment with MDA-MB-231, in the experiment on UACC-62, in the experiment on SNB-75 and in the experiment on KM12 was > 100 µM (inactive) in each case. Besides, the GI50 in the experiment on SW-620, in the experiment with NCI-H226, in the experiment with OVCAR-4, in the experiment on SR, in the experiment with MCF7 and in the experiment on MDA-N was > 100 µM (inactive) throughout. Further, the GI50 with SK-MEL-28, with DU-145, with SF-295, in the experiment on HL-60, in the experiment with NCI-H23 and with ACHN was > 100 µM (inactive) throughout.
Turning to `O=C1CC2(CCC(O)(c3cccs3)C(C(=O)c3cccs3)C2)C(=O)c2ccccc2N1` (stereo not drawn), the GI50 was 38.5 µM (inactive) with HCC 2998; 11.8 µM (inactive) in the experiment with SK-MEL-5; > 100 µM (inactive) in the experiment with MDA-MB-231; > 100 µM (inactive) in the experiment with UACC-62; > 100 µM (inactive) in the experiment on SK-MEL-2; 37.7 µM (inactive) in the experiment with SNB-75. In addition, the GI50 is > 100 µM (inactive) in the experiment on SW-620; > 100 µM (inactive) in the experiment on NCI-H226; > 100 µM (inactive) in the experiment with SR; 77.4 µM (inactive) in the experiment on MCF7; > 100 µM (inactive) with MDA-N; 67.3 µM (inactive) in the experiment on DU-145. Also, the GI50 is > 100 µM (inactive) in the experiment with SF-295, 29.2 µM (inactive) in the experiment with HL-60 and > 100 µM (inactive) in the experiment with NCI-H23.
For the molecule `COc1cc([C@@H]2c3cc(O)c(OC)cc3C=C(C(N)=O)[C@H]2C(N)=O)ccc1O`, the GI50 in the experiment on HCC 2998, in the experiment with SK-MEL-5, in the experiment on MDA-MB-231, in the experiment on SNB-75, with KM12 and in the experiment on SW-620 was > 100 µM (inactive) in each case. The GI50 in the experiment with NCI-H226, in the experiment with SR, with MCF7, in the experiment on MDA-N, in the experiment with SK-MEL-28 and in the experiment with DU-145 was > 100 µM (inactive) throughout. The GI50 with SF-295, with HL-60, in the experiment with NCI-H23 and in the experiment with ACHN was > 100 µM (inactive) in each case.
Turning to `O=C(Cn1c(C(=O)/C=C/c2ccc(Cl)cc2)nc2ccccc21)c1ccc(Cl)cc1`, the GI50 in the experiment with HCC 2998 is 14.4 µM (inactive); with SK-MEL-5 it was 14.8 µM (inactive); in the experiment with MDA-MB-231 it was 19.9 µM (inactive); in the experiment on UACC-62 it was 15.8 µM (inactive); with SK-MEL-2, 17.6 µM (inactive); in the experiment on KM12, 7.26 µM (inactive). Also, the GI50 in the experiment with SW-620 is 11.4 µM (inactive); with NCI-H226, 21.4 µM (inactive); in the experiment with OVCAR-4, 13.4 µM (inactive); with SR it was 4.25 µM (inactive); with MCF7, 15.2 µM (inactive); with MDA-N it was 20.7 µM (inactive). In addition, the GI50 in the experiment with SK-MEL-28 is 21.7 µM (inactive); in the experiment on DU-145, 21.7 µM (inactive); with HL-60 it was 10.1 µM (inactive); with NCI-H23 it was 19.5 µM (inactive); with ACHN, 20.7 µM (inactive).
Regarding `O=C(/C=C/c1cccs1)c1ccc(Cl)cc1`, the GI50 with HCC 2998 was > 100 µM (inactive); in the experiment on SK-MEL-5 it was 65.2 µM (inactive); in the experiment with MDA-MB-231, > 100 µM (inactive); with UACC-62, > 100 µM (inactive); in the experiment with SK-MEL-2, > 100 µM (inactive); in the experiment with SNB-75, > 100 µM (inactive). In addition, the GI50 in the experiment on KM12 is 43.9 µM (inactive); with SW-620, 28.8 µM (inactive); in the experiment with NCI-H226, 67.8 µM (inactive); in the experiment on SR it was 28.1 µM (inactive); in the experiment with MCF7 it was 21.9 µM (inactive); in the experiment on MDA-N it was 44.9 µM (inactive). Further, the GI50 in the experiment with SK-MEL-28 was > 100 µM (inactive); in the experiment with DU-145, > 100 µM (inactive); in the experiment with SF-295, 99.3 µM (inactive); in the experiment on HL-60 it was 28.6 µM (inactive); in the experiment on NCI-H23, 88.5 µM (inactive); in the experiment on ACHN it was > 100 µM (inactive).
For `CCCCCCCSCC(O)COC(c1ccccc1)(c1ccccc1)c1ccccc1` (stereo not drawn), the GI50 with HCC 2998 was 19.4 µM (inactive); with SK-MEL-5 it was 23.6 µM (inactive); with MDA-MB-231 it was > 100 µM (inactive); in the experiment on UACC-62, 65.8 µM (inactive); with SK-MEL-2, 18.3 µM (inactive); in the experiment on KM12, 0.051 µM (active). For the same molecule, the GI50 is 78 µM (inactive) in the experiment on SW-620; 18.1 µM (inactive) in the experiment with NCI-H226; 49.9 µM (inactive) in the experiment with OVCAR-4; 22.1 µM (inactive) in the experiment on SR; 40.1 µM (inactive) in the experiment with MCF7; 40.9 µM (inactive) with MDA-N. In addition, the GI50 in the experiment on SK-MEL-28 is > 100 µM (inactive); with DU-145, > 100 µM (inactive); with SF-295 it was 35.3 µM (inactive); in the experiment on HL-60, 26.9 µM (inactive); in the experiment with NCI-H23, 14.8 µM (inactive); with ACHN, 25.5 µM (inactive).

The values above are taken from ChEMBL document CHEMBL1201862, “PubChem BioAssay data set” (2004).
